Source: patent US9988380B2, “Quorum sensing inhibitors” (priority 2013, dated 2018)

Legend:
[1] = test system: rhlA-gfp(ASV) expression; experiment: Inhibition of the Rhl QS system, rhlA-gfp(ASV) reporter in PAO1 wild-type and lasR mutant; format: cell-based, P. aeruginosa
Protocol: Inhibition of the Rhl and PQS QS systems in wild-type PAO1 and PAO1 lasR mutant. Wild-type P. aeruginosa PAO1 strains harboring either the rhlA-gfp(ASV) reporter or the pqsA-gfp(ASV) reporter, and a P. aeruginosa PAO1 lasR mutant harboring either the rhlA-gfp(ASV) reporter or the pqsA-gfp(ASV) reporter were used for this experiment (Refer to FIG. 11 for strain information). Overnight cultures of these four strains were diluted 100-fold in ABTGC media within 96-well microtitre plates to a final volume of 200 μL per well. Each of the five QSIs was added in triplicate to a final concentration of 50 μM. 0.5% DMSO was used as a negative control. The microtitre plate was incubated at 37° C. in a Tecan Infinite 200 Pro plate reader where GFP and OD600 readings were measured at 15 min intervals.
Effect of QSIs on Rhl and Pqs Quorum-Sensing Systems. In order to address the problem of the specificity of present compounds, the five identified QSI compounds were tested to see if they had any effect on the rhl and pqs systems. The five QSIs were tested against a PAO1 wild-type and a PAO1 lasR mutant harboring either the rhlA-gfp (ASV) bioreporter or the pqsA-gfp (ASV) bioreporter. The rhlA system is dependent on the RhlR/I system. By doing so, we were able to determine if a QSI is able to inhibit the other two QS systems (i.e. rhl and pqs) in a lasR-dependent/independent manner (FIG. 8).

[2] = test system: P. aeruginosa PAO1 strain; experiment: iTRAQ-based quantitative proteomic analysis; format: cell-based; details: 25 μM G1
Protocol: iTRAQ-Based Proteomics Analyses for G1. Isobaric tag for relative and absolute quantitation (iTRAQ)-based proteomic analysis was used to study the changes in protein expression of the P. aeruginosa PAO1 strain in response to the addition of 25 μM of G1. Proteomics experiments were performed at the Proteomic Core Facility of the Biological Research Center, School of Biological Sciences, Nanyang Technological University, Singapore. A full description of the proteomics workflow is given below.
Protein preparation and digestion. The P. aeruginosa PAO1 strain was grown in ABTG media. Sub-lethal concentrations of G1 (25 μM) were added to independent P. aeruginosa PAO1 cultures respectively. Cultures were grown in LB medium at 37° C. with shaking until late log phase (OD 600 nm=1.0) before harvesting. After harvesting, cell pellets were washed with 1×PBS and resuspended in 2 ml of lysis buffer containing 0.5M TEAB and 0.1M SDS. The cells were ruptured by sonication, and the cell debris was removed by centrifugation at 4° C. at 16000×g for 15 min. 200 μg of proteins from different growth conditions were dissolved in equal volume of sample buffer (Invitrogen) supplemented with 0.5% 2-mercaptoethanol and denatured by boiling at 95° C. for 5 min. 1D gel electrophoresis was carried out using 10% SDS-PAGE for in-gel digestion.
Proteins were first reduced using 5 mM Tris-(2-carboxyethyl)phosphine (TCEP) for 1 h at 60° C., followed by blocking of cysteine residues by 10 mM methyl methanethiosulfate (MMTS) for 30 min at room temperature in the dark. Trypsin was added at a ratio of 1:50 (trypsin/sample). It was then incubated at 37° C. overnight. The tryptic peptides were extracted by 50% ACN/5% Acetic Acid from gel for 3 times and were desalted using Sep-Pak C18 cartridges (Waters, Milford, Mass.) and dried in a SpeedVac (Thermo Electron, Waltham, Mass.). All chemicals were purchased from Sigma-Aldrich unless stated otherwise.
iTRAQ labeling. The iTRAQ labeling of the tryptic peptides was performed using 4-plex iTRAQ reagent kit (Applied Biosystems, Foster City, Calif.), according to the manufacturers protocol. 200 μg of peptides from each condition were individually labeled with respective isobaric tags: control sample with 114, and the G1 treated sample with 115. After 2 h incubation, the samples were quenched by water, desalted using C18 solid phase extraction cartridge, and then vacuum-centrifuged to dryness. […] The HPLC chromatograms were recorded at 280 nm and fractions were collected online using automated fraction collector. 20 fractions were collected and concentrated using vacuum centrifuge and reconstituted in 3% ACN with 0.1% formic acid for LC-MS/MS analysis.
LC-MS/MS. The peptides were separated and analyzed on a home-packed nanobore C18 column (15 cm×75 μm; Reprosil-Pur C18-AQ, 3 μm, Dr Maisch, Germany) with a Picofritnanospray tip (New Objectives, Woburn, Mass., USA) on a Tempo™ nano-MDLC system coupled with a QSTAR® Elite Hybrid LC-MS/MS system (Applied Biosystems). Peptides from each fraction were analyzed in triplicate by LC-MS/MS over a gradient of 90 min. The flow rate of the LC system was set to a constant 300 nl/min. Data acquisition in QSTAR Elite was set to positive ion mode using Analyst® QS 2.0 software (Applied Biosystems). MS data was acquired in positive ion mode with a mass range of 300-1600 m/z. Peptides with +2 to +4 charge states were selected for MS/MS. For each MS spectrum, the three most abundant peptides above a five-count threshold were selected for MS/MS and dynamically excluded for 30 s with a mass tolerance of 0.03 Da. Smart information-dependent acquisition was activated with automatic collision energy and automatic MS/MS accumulation. The fragment intensity multiplier was set to 20 and maximum accumulation time was 2 s.
Data analysis. […]

[3] = test system: elastase production by P. aeruginosa PAO1; experiment: Elastase assay of culture supernatants (EnzChek Elastase Assay Kit); format: cell-based; details: 50 and 100 μM, 2 h cultivation
Protocol: Elastase Assay. P. aeruginosa PAO1 wild-type and an elastase negative lasI rhlI mutant were cultivated in LB medium overnight at 37° C. with shaking. Overnight cultures were 1:100 diluted to 5 ml ABTGC medium and incubator at 37° C. with shaking. Compound G1 was supplemented into the PAO1 cultures at final concentrations of 0, 50, 100 μM respectively. After 2 h incubation, 0.8 mL culture supernatants were sampled by centrifugation (18000 g, 4 min) and filtration through 0.2 micron filters. Elastase activity of P. aeruginosa culture supernatants was measured by using The EnzChekElastase Assay Kit (Invitrogen), which uses BODIPY-FL-labeled DQ elastin conjugate as the substrate of elastase. The BODIPY-FL-labeled DQ elastins conjugate when cleaved by elastase enzyme, yields highly fluorescent fragments. Fluorescence was recorded every 6 min for 180 min by using a Tecan Infinite 200 Pro plate reader (excitation at 490 nm, emission at 520 nm).

## N=c1[nH]c(=O)c2nn[nH]c2[nH]1 [Compound G1, 5-imino-4,6-dihydro-3H-1,2,3-triazolo[5,4-d]pyrimidin-7-one]
[1]; PAO1 lasR mutant, 50 μM QSI
  inhibition of rhlA-gfp expression: 46.5%
[1]; data not shown
  induction of the rhl QS system: delay the induction of the rhl QS system
[1]; wild-type PAO1, 50 μM QSI
  inhibition of rhlA-gfp expression: 23.1%
[2]
  abundance of protease IV (PA4175), 115:114: 0.29
  change in abundance of pyoverdine chromophore synthetase (pvdL; PA2424): −0.73 fold
  change in abundance of pyoverdine synthetase D (pvdD; PA2399): −0.89 fold
  elastase (lasB; PA3724) in the proteomics result: not identified as down-regulated
[2]; 115:114 score at least 1.5
  number of proteins with abundance upregulated: 19
[2]; 115:114 score below 0.66
  number of proteins with abundance down-regulated: 27
[2]; p-value (115:114) cut-off 0.05
  number of proteins significantly affected: 46
[3]
  elastase production (elastase activity of culture supernatants): almost abolish elastase production
